US5688773A, “Method of selectively destroying neoplastic cells” (priority 1994, dated 1997)

How the values were obtained:
[1] = tested on: C6VIK cells; assay: Ganciclovir sensitivity in vivo, subrenal capsule tumors; design: species or system rat; conditions: 20 mg/kg intraperitoneally daily; reassessed over a 16-day period; two animals
Source text: In this study, rat C6 glioma cells were used as a model primary brain tumor type. C6 cells rapidly form a non-encapsulated, non-metastatic tumor after injection into the adult rat CNS. Further, derivative cell lines are available, which lack endogenous TK activity (C6-BUI) or bear the lacZ gene (C6-BAG), which are useful experimentally. A retroviral vector was generated in which the HSV-1-TK gene is regulated by the strong, constitutive retrovirus LTR promoter. C6-BUI cells were infected with this vector and selected for TK activity by growth in HAT medium. Parental and infected cells were tested for their dose-dependent sensitivity to ganciclovir in culture and in vivo following inoculation into the rat subrenal capsule.
Ganciclovir Sensitivity in vivo: Nine rats were implanted in the subrenal capsule with C6VIK cells. Four survived the procedure for further study. Tumors were measured 5 days after implantation. Two animals were treated with ganciclovir (20 mg/kg intraperitoneally daily) and two with saline daily. Tumor size was reassessed over a 16-day period. The two control tumors grew four- to twelve-fold.
This model overcomes the problem of not being able to directly observe the size of an intracerebral tumor implant and the concerns about delivery of ganciclovir through an intact blood-brain barrier.

[2] = tested on: C6BBAG cells co-cultured with C6VIKWT cells; assay: Delayed co-culture, ganciclovir sensitivity of recipient colonies; assay type: cell-based; conditions: Rattus norvegicus, ratio 1:2, read-out: ganciclovir concentration at which 50% of cells grew
Description: Donor C6VIK or C6VIKWT cells were then added to the cultures at a ratio of 1:2 (5×10^4 recipient cells: 10^5 donor cells). Control cultures consisted of C6BAG or C6BBAG cells alone, or C6BA6 or C6BBAG cells co-plated with "donor" C6BU1 or C6BWT cells, after delay, as above. After 10 days, ganciclovir was added at varying concentrations (0-300 μM) and cells were incubated for another 9-12 days with the drug. Cells were then fixed with 0.5% glutaraldehyde and stained histochemically for beta-galactosidase activity, as described (Price et al., Proc. Natl. Acad. Sci. USA 84:1141-1145 (1987)), and colonies were counted.

[3] = tested on: C6BAG and C6VIK cells; assay: Ganciclovir treatment of combined subcutaneous tumors; assay type: in vivo, nude mice; conditions: 14 day course, 25 mg/kg twice a day intraperitoneally
Description: Sequential injections of 10^5 C6BAG cells followed immediately by 10^6 C6BU1 cells, C6VIK cells, or C6VIKWT cells at the same injection site, were carried out as above using 20 animals for each combination. After the tumors had reached 1 cm in diameter, ganciclovir treatment was begun for 14 days, 25 mg/kg twice a day intraperitoneally in half of each group, with the other half receiving PBS intraperitoneally as a control. Tumor volume was assessed as the percentage increase over the volume at the beginning of treatment through 17 days.

[4] = tested on: C6 cells co-cultured with irradiated C6-P450 cells; assay: Co-culture assay with irradiated cells; assay type: cell-based; conditions: Rattus norvegicus, light or radiation study, 96 h; 10% irradiated C6-P450 cells; 0.5 mM CPA, four days; read-out: decrease in the proliferation of C6 cells
Description: Co-culture assay: Co-cultures of C6-P450 and C6 cells were incubated in triplicate at different ratios (where 0, 10, 50, 90, and 100% of the cells were C6-P450 cells) to achieve a total number of 2×10^6 cells/10 cm dish. After 24 hours, 0.5 mM CPA was added and four days later, cells were counted as previously described. To compare the killing achieved by cell contact with that obtained by exposure to conditioned medium, the supernatant from each co-culture was harvested, filtered through 0.45 μm membrane filters, mixed in a 1:1 ratio with 5 mL of fresh medium and added to overnight cultures of C6 cells (2×10^6 cells/10 cm dish in triplicate). Four days later, C6 cells were washed, harvested and counted. To determine the specificity of the cell-mediated killing effect from the co-culture assays, C6 cells were incubated overnight with C6 cells that expressed the neomycin phosphotransferase gene (C6-Neo), with irradiated C6 cells, with irradiated C6-Neo, and with irradiated C6-P450 cells. γ-irradiation was performed by exposing cells to a total of 6000 rads emitted by a ^51 chromium source.

[5] = tested on: MCF-7-Z3 cells; assay: Cyclophosphamide sensitivity of MCF-7 cell lines in culture; assay type: cell-based, human
Description: (§1) To test for drug sensitivity, 1×10^5 cells were plated in 30-mm tissue culture plates (Falcon 3046) in duplicate. Drugs were added 18-24 hours after seeding. Cells were allowed to grow for times ranging up to 5 days after drug treatment, and the final cell number was then determined. Cells were rinsed with phosphate buffered saline or Hank's buffered saline, dispersed using trypsin-EDTA (GIBCO/BRL, Inc.), and then counted with a hemocytometer. Results are expressed as a growth ratio, i.e., the number of cells in plates containing drug as a percentage of the corresponding drug-free controls (mean±range of duplicate determinations).
(§2) Transfection of MCF-7 cells with the cytochrome P450 2B1 expression plasmid, selection of neomycin-resistant clones, characterization of the expressed cytochrome P450 2B1 protein, and sensitivity of cell lines to drugs were carried out as described in Example 7 for the 9L cytochrome P450 2B1-expressing cell lines.

[6] = tested on: cytochrome P450 2B1-expressing MCF-7 cell lines P2, P3, P5, P8, P9 and P26; assay: as above; assay type: cell-based, human
Description: as §1, §2

[7] = tested on: parental MCF-7 cells; assay: as above; assay type: cell-based, human
Description: as §1, §2

[8] = tested on: control tumor MCF-7 Z3; assay: MCF-7 tumors in nude mouse model; assay type: in vivo, nude mice; conditions: 100 mg/kg ×2 intraperitoneal, day 0 and day 2
Description: (§3) MCF-7 cells or stable MCF-7 cell transfectants expressing cytochrome P450 2B1 or E. coli β-galactosidase (lacZ) were grown in cell culture. Cells in the exponential growth phase were harvested and then injected subcutaneously (1×10^7 cells in 0.2 mL) in the flanks of nude mice. A single 17β-estradiol pellet (1.7 mg hormone/60-day release pellet, Innovative Research, Toledo, Ohio) was implanted one day before tumor inoculation. At one month after tumor inoculation, the size of each tumor was measured using a vernier caliper.
(§4) Nude mice were then treated with cyclophosphamide given at 100 mg/kg body weight×2, by intraperitoneal injection given on day 0 and again on day 2. Tumor size measurements were then again determined using a vernier caliper, and data are expressed relative to tumor sizes as of day 0, the day of initial cyclophosphamide (CPA) injection.

[9] = tested on: cytochrome P450 2B1-expressing MCF-7 cells; assay: MCF-7 tumors in nude mouse model; assay type: in vivo, nude mice; conditions: 100 mg/kg ×2 intraperitoneal, day 0 and day 2
Description: as §3, §4

[10] = tested on: C6-P450 cells; assay: Cell proliferation assay
[11] = tested on: R450-2 (ΨCRE-derived clone, cytochrome P450 2B1); assay: Growth in the presence of 500 μM cyclophosphamide; conditions: 500 μM CPA, four days

Row | SMILES | Tumor size after treatment [1] | IC50 [2] [µM] | Tumor volume compared to C6BAG and C6BU1 tumors [3] | inhibition at 500 µM [4] [%] | Sensitivity to cyclophosphamide [5] | Sensitivity to cyclophosphamide cytotoxicity [6] | Sensitivity to cyclophosphamide [7] | Tumor cyclophosphamide sensitivity in vivo [8] | Tumor cell kill in vivo [9] | Growth inhibition ([10]; 0.5 mM CPA, 10 days) | Effect on cell proliferation ([10]; 0.5 mM, four days) | Cell proliferation assay, number of cells ([10]; Table V panel A, 0.5 mM, four days) | Cell destruction [11]
1 | Nc1nc(O)c2ncn(COC(CO)CO)c2n1 [ganciclovir] | smaller after the treatment than before | 30 | significant decrease in the tumor volume | – | – | – | – | – | – | – | – | – | –
2 | O=P1(N(CCCl)CCCl)NCCCO1 (stereo not shown) [cyclophosphamide] | – | – | – | 30 | insensitive to high concentrations | highly sensitive | insensitive to high concentrations | only a moderate cyclophosphamide sensitivity | preferentially killed | complete growth inhibition | complete inhibition of cell proliferation | 1.15±0.11 ×10^6 | destroyed completely
